The record followed here is ChEMBL document CHEMBL1136285, “Discovery of a novel potent Na+/Ca2+ exchanger inhibitor: design, synthesis and structure-activity relationships of 3,4-dihydro-2(1H)-quinazolinone derivatives” (Bioorg Med Chem Lett, 2003).

Series [1] is filed under the species Cavia porcellus. As to the kind of experiment: Inhibitory activity against Na+/[Ca2+] exchanger after 30 min of K+ free incubation in isolated left atria from guinea pig.
Series [2] can be described thus: pKa value was determined. It counts as physicochemical.
For series [3], the species on record is Cavia porcellus. Nature of the series: Inhibitory activity (1 uM) against Na+/[Ca2+] exchanger after 30 min of K+ free incubation in isolated left atria from guinea pig. It counts as functional.

Take `CCN(CC)CCCN1C(=O)Nc2ccccc2C1c1ccccc1` (stereo not drawn): the IC30 in the series filed under Cavia porcellus [1] was determined as 40 nM.
On the same count and under the same terms, the result for `CCNCCN1C(=O)Nc2ccccc2C1c1ccccc1` (stereo not drawn) reads 580 nM; that for `CC(C)CCCN1C(=O)Nc2ccccc2C1c1ccccc1` (stereo not drawn), > 10000 nM; that for `CN(C)CCCN1C(=O)Nc2ccc(Cl)cc2C1c1ccco1` (stereo not drawn), 690 nM.
Same read-out and setting: the same measure for `CN(C)CCCN1C(=O)Nc2ccc(Cl)cc2C1c1ccccc1` (stereo not drawn): 460 nM.
With `CCCN1CCC(N2C(=O)Nc3ccccc3C2c2ccccc2)CC1` (stereo not drawn), the IC30 in the series listed under Cavia porcellus [1] turned out to be 93 nM.
As to `CN(C)CCCN1C(=O)Nc2ccccc2C1c1ccccc1` (stereo not drawn), the IC30 in the series filed under Cavia porcellus [1] is 350 nM.
`CCN1CCC(N2C(=O)Nc3ccccc3C2c2ccccc2)CC1` (stereo not drawn): the IC30 in the series listed under Cavia porcellus [1] was 53 nM.
`CCN(CC)CCCCN1C(=O)Nc2ccccc2C1c1ccccc1` (stereo not drawn) registered an IC30 in the series listed under Cavia porcellus [1] of 1900 nM.
Compound `O=C1Nc2ccccc2C(c2ccccc2)N1C1CCN(CCc2ccccc2)CC1` (stereo not drawn) registered an IC30 in the series listed under Cavia porcellus [1] of 3600 nM.
Same read-out and setting: the result for `CN(C)CCCN1C(=O)Nc2ccccc2C1c1cccs1` (stereo not drawn) reads 720 nM; that for `O=C1Nc2ccccc2C(c2ccccc2)N1C1CCN(Cc2ccccc2)CC1` (stereo not drawn), 17 nM; that for `CN(C)CCCN1C(=O)N(C)c2ccc(Cl)cc2C1c1ccccc1` (stereo not drawn), > 10000 nM.
Take `CCN(CC)C(=O)CN1C(=O)Nc2ccccc2C1c1ccccc1` (stereo not drawn): the pKa in series [2] was -0.58. Moreover, the IC30 in the series filed under Cavia porcellus [1] is > 10000 nM.
Regarding `CN(C)CCCN1C(=O)Nc2ccccc2C1C1CCCCC1` (stereo not drawn), the 30% effect level in the series filed under Cavia porcellus [1] (IC30) was put at 570 nM.
In the series listed under Cavia porcellus [1], `CN1CCC(N2C(=O)Nc3ccccc3C2c2ccccc2)CC1` (stereo not drawn) returned an IC30 of 87 nM.
With `CCOCCN1C(=O)Nc2ccccc2C1c1ccccc1` (stereo not drawn), the IC30 in the series filed under Cavia porcellus [1] was > 10000 nM.
In the series listed under Cavia porcellus [1], `CN(C)CCCN1C(=O)Nc2ccccc2C1c1ccccn1` (stereo not drawn) had an IC30 of 510 nM.
`O=C1Nc2ccccc2C(c2ccccc2)N1C1CCN(CC2CCCCC2)CC1` (stereo not drawn): the IC30 in the series listed under Cavia porcellus [1] came out at 4000 nM.
Still for that read-out and setting: the same measure for `CC1c2ccccc2NC(=O)N1CCCN(C)C` (stereo not drawn): 5300 nM.
The compound `O=C1Nc2ccccc2C(c2ccccc2)N1C1CCNCC1` (stereo not drawn) showed an IC30 in the series listed under Cavia porcellus [1] of 1100 nM.
`CCN(CC)CCN1C(=O)Nc2ccccc2C1c1ccccc1` (stereo not drawn): the pKa in series [2] came to 10.2. The 30% effect level in the series listed under Cavia porcellus [1] (IC30) was put at 69 nM.
As for `NCCN1C(=O)Nc2ccccc2C1c1ccccc1` (stereo not drawn), the IC30 in the series filed under Cavia porcellus [1] was > 10000 nM.
In turn, `CN(C)CCCN1C(S)=Nc2ccccc2C1c1ccccc1` (stereo not drawn) gave an IC30 in the series listed under Cavia porcellus [1] of 3800 nM.
`CN(C)CCCN1C(=O)Nc2ccccc2C1Cc1ccccc1` (stereo not drawn): the IC30 in the series listed under Cavia porcellus [1] is > 10000 nM.
For the compound `CCOc1ccc(Oc2ccc(OCc3cc(F)ccc3F)cc2)c(N)c1`, the Inhibition in the series listed under Cavia porcellus [3] is > 80%.
